Numbers after ± are expanded uncertainties.
Conditions: Fluid (supercritical or subcritical phases), isochoric method

O=C(C(F)(F)C(F)(F)F)C(F)(C(F)(F)F)C(F)(F)F [dodecafluoro-2-methylpentan-3-one]
Conditions	mass density [kg/m3]
333.47 K, 4628.4 kPa	1526.2 ± 6.1
343.46 K, 3695.1 kPa	1489 ± 6
353.46 K, 597.1 kPa	1425.9 ± 5.7
353.46 K, 7818.2 kPa	1488.3 ± 6
363.45 K, 4019 kPa	1425.2 ± 5.7
373.46 K, 849.3 kPa	1348 ± 5.9
373.46 K, 7450.4 kPa	1424.5 ± 5.7
383.46 K, 3567.3 kPa	1347.4 ± 5.4
393.47 K, 6308 kPa	1346.8 ± 5.4
393.5 K, 1730.8 kPa	1273.5 ± 5.1
403.46 K, 831.5 kPa	107.8 ± 39
403.46 K, 9056.2 kPa	1346.1 ± 5.4
403.48 K, 1044.1 kPa	1195.8 ± 39
403.5 K, 3917.8 kPa	1272.9 ± 5.1
413.46 K, 1666.3 kPa	1157.5 ± 6.3
413.48 K, 873.1 kPa	107.8 ± 11
413.48 K, 2784 kPa	1195.2 ± 4.8
413.5 K, 6126.2 kPa	1272.3 ± 5.1
423.47 K, 3219 kPa	1156.9 ± 4.7
423.49 K, 913.6 kPa	107.7 ± 5.4
423.49 K, 4554.9 kPa	1194.6 ± 4.8
423.49 K, 8348.4 kPa	1271.7 ± 5.1
433.46 K, 1423 kPa	209.1 ± 7.5
433.47 K, 4799.8 kPa	1156.4 ± 4.7
433.48 K, 2354.6 kPa	1044.1 ± 4.3
433.49 K, 953.3 kPa	107.7 ± 1.8
433.49 K, 1785.7 kPa	980.1 ± 7.9
433.49 K, 6349 kPa	1194.1 ± 4.8
443.47 K, 1703.9 kPa	270.5 ± 5.5
443.48 K, 1517.2 kPa	209 ± 3.3
443.48 K, 1862.8 kPa	384.5 ± 7
443.48 K, 1909.2 kPa	553.6 ± 11
443.48 K, 2368.4 kPa	932 ± 4.1
443.48 K, 6401.8 kPa	1155.8 ± 4.6
443.49 K, 991.3 kPa	107.6 ± 1.6
443.49 K, 1905.5 kPa	490.7 ± 5.6
443.49 K, 1950.5 kPa	733.6 ± 23
443.5 K, 1925.1 kPa	626.4 ± 43
443.5 K, 1983.4 kPa	797.9 ± 9.4
443.5 K, 2050.5 kPa	844.7 ± 6.5
443.5 K, 2089.1 kPa	861.9 ± 5.6
443.5 K, 2696.6 kPa	979.6 ± 4
443.5 K, 3478.7 kPa	1043.6 ± 4.2
443.5 K, 8156.2 kPa	1193.5 ± 4.8
453.48 K, 3187.2 kPa	931.6 ± 3.9
453.49 K, 1028.2 kPa	107.6 ± 1.5
453.49 K, 2074 kPa	384.3 ± 5.6
453.49 K, 2237.3 kPa	553.3 ± 8.8
453.49 K, 2415.6 kPa	733.2 ± 6.5
453.49 K, 8016.6 kPa	1155.3 ± 4.6
453.5 K, 1608.6 kPa	208.9 ± 2.7
453.5 K, 1836 kPa	270.4 ± 3.2
453.5 K, 2302.1 kPa	626.1 ± 8.5
453.5 K, 2679.9 kPa	844.3 ± 4
453.51 K, 3642.6 kPa	979.1 ± 4
453.51 K, 4628.3 kPa	1043.2 ± 4.2
453.52 K, 2543.8 kPa	797.5 ± 4.8
453.52 K, 2753.3 kPa	861.5 ± 5.8
453.52 K, 9972.1 kPa	1192.9 ± 4.8
453.53 K, 2192.7 kPa	490.4 ± 8.1
463.48 K, 1697.6 kPa	208.8 ± 1.8
463.49 K, 1963.3 kPa	270.2 ± 2.7
463.49 K, 5794.1 kPa	1042.7 ± 4.2
463.5 K, 1065.3 kPa	107.5 ± 1.4
463.5 K, 2277.3 kPa	384.1 ± 3.9
463.5 K, 2561.8 kPa	553 ± 5.7
463.5 K, 2685.7 kPa	625.8 ± 4.9
463.5 K, 2908.5 kPa	732.9 ± 4.4
463.5 K, 4032.8 kPa	931.2 ± 3.8
463.5 K, 9636.7 kPa	1154.7 ± 4.6
463.51 K, 2470.7 kPa	490.2 ± 5.4
463.51 K, 3127.9 kPa	797.1 ± 3.9
463.51 K, 3336.1 kPa	843.9 ± 3.6
463.52 K, 3442 kPa	861.1 ± 3.5
463.52 K, 4610 kPa	978.7 ± 4
473.49 K, 2087.5 kPa	270.1 ± 2.4
473.49 K, 3412 kPa	732.5 ± 3.7
473.49 K, 4891.4 kPa	930.7 ± 3.8
473.5 K, 1102 kPa	107.5 ± 1.3
473.5 K, 1785 kPa	208.7 ± 1.7
473.5 K, 2476.2 kPa	383.9 ± 3.1
473.5 K, 2884.8 kPa	552.8 ± 4.1
473.5 K, 3074.2 kPa	625.5 ± 3.7
473.51 K, 2746.7 kPa	490 ± 3.8
473.51 K, 5591.7 kPa	978.2 ± 4
473.51 K, 6974.8 kPa	1042.2 ± 4.2
473.52 K, 4008.9 kPa	843.5 ± 3.6
473.52 K, 4147 kPa	860.7 ± 3.6
473.53 K, 3727.6 kPa	796.7 ± 3.6
483.48 K, 5762.4 kPa	930.3 ± 3.8
483.49 K, 1870.9 kPa	208.6 ± 1.5
483.49 K, 2209.8 kPa	270 ± 2.1
483.49 K, 2672.1 kPa	383.8 ± 2.7
483.5 K, 3464.6 kPa	625.2 ± 3.2
483.5 K, 3924.7 kPa	732.2 ± 3.4
483.5 K, 8161 kPa	1041.7 ± 4.2
483.51 K, 1138.4 kPa	107.4 ± 1.2
483.51 K, 3208.9 kPa	552.5 ± 3.4
483.52 K, 3020.8 kPa	489.7 ± 3.3
483.52 K, 4336.7 kPa	796.4 ± 3.4
483.52 K, 4691.3 kPa	843.1 ± 3.5
483.52 K, 4863.8 kPa	860.3 ± 3.6
483.52 K, 6584 kPa	977.8 ± 3.9
493.49 K, 1955 kPa	208.5 ± 1.4
493.49 K, 2329.9 kPa	269.9 ± 1.9
493.49 K, 2865 kPa	383.6 ± 2.4
493.5 K, 3858.2 kPa	624.9 ± 3
493.5 K, 4442.7 kPa	731.8 ± 3.2
493.5 K, 6642.5 kPa	929.8 ± 3.8
493.5 K, 9354.4 kPa	1041.2 ± 4.2
493.51 K, 1174.7 kPa	107.4 ± 1.2
493.51 K, 5382.6 kPa	842.7 ± 3.5
493.52 K, 3532.9 kPa	552.2 ± 2.9
493.52 K, 4954.4 kPa	796 ± 3.4
493.52 K, 5589.2 kPa	859.9 ± 3.5
493.53 K, 7585.3 kPa	977.3 ± 3.9
493.54 K, 3292.9 kPa	489.5 ± 2.8
503.49 K, 7526.9 kPa	929.4 ± 3.8
503.5 K, 2038.9 kPa	208.4 ± 1.3
503.5 K, 2448.7 kPa	269.7 ± 1.8
503.51 K, 1210.7 kPa	107.3 ± 1.1
503.51 K, 3055.8 kPa	383.4 ± 2.2
503.51 K, 4251.2 kPa	624.7 ± 2.8
503.52 K, 3562.4 kPa	489.3 ± 2.6
503.52 K, 4964.5 kPa	731.5 ± 3.1
503.53 K, 3855.8 kPa	552 ± 2.7
503.53 K, 5577.4 kPa	795.6 ± 3.3
503.53 K, 6079.9 kPa	842.3 ± 3.5
503.53 K, 6319.5 kPa	859.5 ± 3.5
503.53 K, 8592.1 kPa	976.8 ± 3.9
513.49 K, 2121.4 kPa	208.3 ± 1.3
513.49 K, 2565.8 kPa	269.6 ± 1.7
513.5 K, 1245.5 kPa	107.3 ± 1.1
513.5 K, 4646.1 kPa	624.4 ± 2.7
513.5 K, 5488.2 kPa	731.1 ± 3.1
513.5 K, 8416.4 kPa	928.9 ± 3.8
513.51 K, 3244.9 kPa	383.2 ± 2.1
513.52 K, 4177.8 kPa	551.7 ± 2.6
513.52 K, 6780.4 kPa	841.9 ± 3.4
513.52 K, 7055 kPa	859.1 ± 3.5
513.53 K, 3830.9 kPa	489 ± 2.5
513.53 K, 9599.7 kPa	976.4 ± 3.9
513.54 K, 6204.5 kPa	795.2 ± 3.3
523.49 K, 2682.3 kPa	269.5 ± 1.6
523.49 K, 5040.8 kPa	624.1 ± 2.7
523.49 K, 9308.2 kPa	928.5 ± 3.7
523.5 K, 1281.4 kPa	107.2 ± 1
523.5 K, 2203.4 kPa	208.2 ± 1.2
523.5 K, 3433 kPa	383 ± 2
523.52 K, 4099.2 kPa	488.8 ± 2.3
523.52 K, 6015.2 kPa	730.8 ± 3
523.53 K, 6832.9 kPa	794.9 ± 3.3
523.53 K, 7485.5 kPa	841.5 ± 3.4
523.54 K, 4499.9 kPa	551.5 ± 2.5
523.54 K, 7793.7 kPa	858.7 ± 3.5
